25 compounds from patent US20230115274A1, “COMPOUNDS AND COMPOSITIONS FOR TREATING CONDITIONS ASSOCIATED WITH STING ACTIVITY” (IFM Due, Inc., priority 2019, published 2023) can be followed below.

Each structure is given as a SMILES string. Some results are limits rather than exact numbers.

The test concerns the target T1, hSTING (Homo sapiens, UniProt Q86WV6, G230A/H232R/R293Q/R71H).
T1 construct: host or cells: THP1-Dual KO-IFNAR2 cells
The experiment in a line: STING reporter assay (luciferase) in THP1-Dual KO-IFNAR2 cells stimulated with 2′3′cGAMP. The test is classed as cell-based. Conditions: 2′3′cGAMP 15 μM, 24 h. Summed up: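 THP1-Dual KO-IFNAR2 cells (2×10E6 cells/mL) were treated with compound at 0.0017-100 μM final plus 15 μM final 2′3′cGAMP delivered with Lipofectamine 2000. After 24 h at 37° C., secreted luciferase in supernatant was read by QUANTI-Luc luminescence and EC50 values were fitted.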

Broadly, the EC50 is the concentration needed to bring the measured effect to its halfway point. High values mean weaker potency, low ones greater potency.

T1 sequence (Q86WV6 whole entry R71H/G230A/H232R/R293Q): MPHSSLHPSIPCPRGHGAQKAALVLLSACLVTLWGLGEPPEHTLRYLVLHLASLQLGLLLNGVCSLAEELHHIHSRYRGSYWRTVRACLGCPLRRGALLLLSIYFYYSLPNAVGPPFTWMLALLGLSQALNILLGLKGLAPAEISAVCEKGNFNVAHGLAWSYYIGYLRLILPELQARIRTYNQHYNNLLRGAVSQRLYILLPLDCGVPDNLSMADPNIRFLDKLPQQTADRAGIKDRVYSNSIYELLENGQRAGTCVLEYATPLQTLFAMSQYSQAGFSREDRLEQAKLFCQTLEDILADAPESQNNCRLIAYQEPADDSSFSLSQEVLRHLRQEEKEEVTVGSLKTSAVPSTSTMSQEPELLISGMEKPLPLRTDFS

Under “class symbols”, `O=C(Nc1cnc(N2CCC3(CCCCO3)CC2)c(Cl)c1)Nc1c[nH]c2cccnc12` [Compound 215, 1-(5-chloro-6-(1-oxa-9-azaspiro[5.5]undecan-9-yl)pyridin-3-yl)-3-(1H-pyrrolo[3,2-b]pyridin-3-yl)urea] displayed an EC50 of 1000 to 5000 nM.

For `O=C(Nc1ccc(C2CCC(F)(F)CC2)nc1)Nc1c[nH]c2ncc(Cl)cc12` [Compound 108, 1-(5-chloro-1H-pyrrolo[2,3-b]pyridin-3-yl)-3-(6-(4,4-difluorocyclohexyl)pyridin-3-yl)urea], under “class symbols”, the EC50 fell in the range of 200 to 1000 nM.

`COc1ccc2[nH]cc(NC(=O)Nc3ccc(C4CCC(F)(F)CC4)c(C#N)c3)c2n1` [Compound 150, 1-(3-cyano-4-(4,4-difluorocyclohexyl)phenyl)-3-(5-methoxy-1H-pyrrolo[3,2-b]pyridin-3-yl)urea] gave an EC50 (class symbols) of 200 to 1000 nM.

As for `N#Cc1cc(NC(=O)Nc2c[nH]c3cccnc23)cnc1C1CCC(F)(F)CC1` [Compound 237, 1-(5-cyano-6-(4,4-difluorocyclohexyl)pyridin-3-yl)-3-(1H-pyrrolo[3,2-b]pyridin-3-yl)urea], where the note is “class symbols”, the EC50 fell in the range of 1000 to 5000 nM.

`O=C(Nc1cnc(C2CCC(F)(F)CC2)c(Cl)c1)Nc1c[nH]c2ncc(F)cc12` [Compound 199, 1-(5-chloro-6-(4,4-difluorocyclohexyl)pyridin-3-yl)-3-(5-fluoro-1H-pyrrolo[2,3-b]pyridin-3-yl)urea]: the EC50 (class symbols) fell in the range of 200 to 1000 nM.

With `O=C(Nc1cnc(N2CCC(F)(F)CC2)c(Cl)c1)Nc1c[nH]c2ncccc12` [Compound 189, 1-(5-chloro-6-(4,4-difluoropiperidin-1-yl)pyridin-3-yl)-3-(1H-pyrrolo[2,3-b]pyridin-3-yl)urea], for the setting “class symbols”, the EC50 lay within 200 to 1000 nM.

For the setting “class symbols”, `COc1ccc2[nH]cc(NC(=O)Nc3ccc(C4CCC(F)(F)CC4)nc3)c2n1` [Compound 213, 1-(6-(4,4-difluorocyclohexyl)pyridin-3-yl)-3-(5-methoxy-1H-pyrrolo[3,2-b]pyridin-3-yl)urea] showed an EC50 of 200 to 1000 nM.

With `O=C(Nc1ncc(N2CCC(F)(F)CC2)cc1Cl)Nc1c[nH]c2ncc(F)cc12` [Compound 178, 1-(3-chloro-5-(4,4-difluoropiperidin-1-yl)pyridin-2-yl)-3-(5-fluoro-1H-pyrrolo[2,3-b]pyridin-3-yl)urea], the EC50 (numeric bounds) is greater than 30000 nM.

Turning to `O=C(Nc1ccc(N2CCC(F)(F)CC2)nc1)Nc1c[nH]c2ncc(F)cc12` [Compound 118, 1-(6-(4,4-difluoropiperidin-1-yl)pyridin-3-yl)-3-(5-fluoro-1H-pyrrolo[2,3-b]pyridin-3-yl)urea], the EC50 (class symbols) lay in the range of 200 to 1000 nM.

The compound `O=C(Nc1cnc(N2CCC(F)(F)CC2)cc1Cl)Nc1c[nH]c2ncc(F)cc12` [Compound 183, 1-(4-chloro-6-(4,4-difluoropiperidin-1-yl)pyridin-3-yl)-3-(5-fluoro-1H-pyrrolo[2,3-b]pyridin-3-yl)urea] gave an EC50 (numeric bounds) greater than 30000 nM.

As for `O=C(Nc1cnc(N2CCN(CCC(F)(F)F)CC2)c(Cl)c1)Nc1c[nH]c2cccnc12` [Compound 225, 1-(5-chloro-6-(4-(3,3,3-trifluoropropyl)piperazin-1-yl)pyridin-3-yl)-3-(1H-pyrrolo[3,2-b]pyridin-3-yl)urea], for the setting “class symbols”, the EC50 was in the range of 1000 to 5000 nM.

Compound `Cc1cc(NC(=O)Nc2c[nH]c3ncc(F)cc23)cnc1N1CCC(C)CC1` [Compound 170, 1-(5-fluoro-1H-pyrrolo[2,3-b]pyridin-3-yl)-3-(5-methyl-6-(4-methylpiperidin-1-yl)pyridin-3-yl)urea] came in with a concentration for a half-maximal effect (EC50) (class symbols) of 200 to 1000 nM.

Turning to `COc1cc(NC(=O)Nc2c[nH]c3ncc(F)cc23)ncc1C1CCC(F)(F)CC1` [Compound 160, 1-(5-(4,4-difluorocyclohexyl)-4-methoxypyridin-2-yl)-3-(5-fluoro-1H-pyrrolo[2,3-b]pyridin-3-yl)urea], where the note is “class symbols”, the concentration giving a half-maximal response (EC50) lay in the range of 200 to 1000 nM.

In turn, `O=C(Nc1cnc(C2CCC(F)(F)CC2)c(F)c1)Nc1c[nH]c2cccnc12` [Compound 234, 1-(6-(4,4-difluorocyclohexyl)-5-fluoropyridin-3-yl)-3-(1H-pyrrolo[3,2-b]pyridin-3-yl)urea] returned an EC50 (class symbols) of 200 to 1000 nM.

Consider `Cc1cnc2[nH]cc(NC(=O)Nc3ccc(C4CCC(F)(F)CC4)nc3)c2c1` [Compound 106, 1-(6-(4,4-difluorocyclohexyl)pyridin-3-yl)-3-(5-methyl-1H-pyrrolo[2,3-b]pyridin-3-yl)urea], for which the EC50 (class symbols) lay within 1000 to 5000 nM.

Where the note is “numeric bounds”, `O=C(Nc1cnn(CC2CCC(F)(F)CC2)c1)Nc1c[nH]c2cccnc12` [Compound 206, 1-(1-((4,4-difluorocyclohexyl)methyl)-1H-pyrazol-4-yl)-3-(1H-pyrrolo[3,2-b]pyridin-3-yl)urea] showed an EC50 greater than 30000 nM.

Turning to `N#Cc1cc(NC(=O)Nc2c[nH]c3ncc(F)cc23)cnc1C1CCC(F)(F)CC1` [Compound 155, 1-(5-cyano-6-(4,4-difluorocyclohexyl)pyridin-3-yl)-3-(5-fluoro-1H-pyrrolo[2,3-b]pyridin-3-yl)urea], where the note is “class symbols”, the EC50 is 40 to 200 nM.

Consider `Cc1cc(NC(=O)Nc2c[nH]c3ncc(F)cc23)cnc1N1CC2(C1)CC(F)(F)C2` [Compound 162, 1-(6-(6,6-difluoro-2-azaspiro[3.3]heptan-2-yl)-5-methylpyridin-3-yl)-3-(5-fluoro-1H-pyrrolo[2,3-b]pyridin-3-yl)urea], for which the EC50 (class symbols) is 200 to 1000 nM.

For the setting “class symbols”, `N#Cc1cc(NC(=O)Nc2c[nH]c3ncc(F)cc23)cnc1N1CCC(F)(F)CC1` [Compound 157, 1-(5-cyano-6-(4,4-difluoropiperidin-1-yl)pyridin-3-yl)-3-(5-fluoro-1H-pyrrolo[2,3-b]pyridin-3-yl)urea] displayed an EC50 of 200 to 1000 nM.

Compound `CC1(C)CN(c2ncc(NC(=O)Nc3c[nH]c4cccnc34)cc2Cl)CCO1` [Compound 241, 1-(5-chloro-6-(2,2-dimethylmorpholino)pyridin-3-yl)-3-(1H-pyrrolo[3,2-b]pyridin-3-yl)urea] came in with an EC50 (class symbols) of 5000 to 100000 nM.

On to `COc1cc(NC(=O)Nc2c[nH]c3ncc(F)cc23)cnc1C1CCC(F)(F)CC1` [Compound 164, 1-(6-(4,4-difluorocyclohexyl)-5-methoxypyridin-3-yl)-3-(5-fluoro-1H-pyrrolo[2,3-b]pyridin-3-yl)urea], for which, where the note is “class symbols”, the EC50 was 200 to 1000 nM.

For the setting “class symbols”, `COc1ccc2[nH]cc(NC(=O)Nc3cnc(C4CC(F)(F)C4)c(Cl)c3)c2n1` [Compound 243, 1-(5-chloro-6-(3,3-difluorocyclobutyl)pyridin-3-yl)-3-(5-methoxy-1H-pyrrolo[3,2-b]pyridin-3-yl)urea] had an EC50 of 200 to 1000 nM.

For the setting “class symbols”, `CC(C)(C)OC(=O)N1CCC(n2cc(NC(=O)Nc3ccc(C4CCC(F)(F)CC4)nc3)c3cc(F)cnc32)CC1` [Compound 103, tert-butyl 4-(3-(3-(6-(4,4-difluorocyclohexyl)pyridin-3-yl)ureido)-5-fluoro-1H-pyrrolo[2,3-b]pyridin-1-yl)piperidine-1-carboxylate] displayed an EC50 of 5000 to 100000 nM.

`Cc1cc(NC(=O)Nc2c[nH]c3ncc(F)cc23)cnc1N1CC2(CC(O)C2)C1` [Compound 156, 1-(5-fluoro-1H-pyrrolo[2,3-b]pyridin-3-yl)-3-(6-(6-hydroxy-2-azaspiro[3.3]heptan-2-yl)-5-methylpyridin-3-yl)urea] returned an EC50 (numeric bounds) greater than 30000 nM.

`O=C(Nc1cnc(N2CCC(F)(F)CC2)c(Cl)c1)Nc1c[nH]c2cc(F)cnc12` [Compound 145, 1-(5-chloro-6-(4,4-difluoropiperidin-1-yl)pyridin-3-yl)-3-(6-fluoro-1H-pyrrolo[3,2-b]pyridin-3-yl)urea]: where the note is “class symbols”, the EC50 is 200 to 1000 nM.
